Data set [1] deals with MaTu-ADR. In words: Proliferation assay, MaTu-ADR. The format is cell-based. As to conditions: Homo sapiens, 96 h, MaTu-ADR cells, 4 days incubation, crystal violet. The source says:
(§1) Cultivated human tumor cells (MCF7, hormone-independent human breast cancer cells, related to ATCC HTB22; NCI-H460, human non-small-cell lung cancer cells, ATCC HTB-177, HCT 116, human colon cancer cells, ATCC CCL-247; DU 145, hormone-independent human prostate cancer cells, ATCC HTB-81; MaTu-MDR, hormone-independent, multiple pharmaceutical agent-resistant human breast cancer cells, EPO-GmbH, Berlin) were flattened out at a density of about 5000 cells/measuring point, depending on the growth rate of the respective cells, in a 96-well multititer plate in 200 μl of the corresponding growth medium. After 24 hours, the cells of one plate (zero-point plate) were colored with crystal violet (see below), while the medium of the other plates was replaced by fresh culture medium (200 μl), to which the test substances were added in various concentrations (0 μm, as well as in the range of 0.01-30 μm; the final concentration of the solvent dimethyl sulfoxide was 0.5%). The cells were incubated for 4 days in the presence of test substances. The cell proliferation was determined by coloring the cells with crystal violet: the cells were fixed by adding 20 μl/measuring point of an 11% glutaric aldehyde solution for 15 minutes at room temperature. After three washing cycles of the fixed cells with water, the plates were dried at room temperature. The cells were colored by adding 100 μl/measuring point of a 0.1% crystal violet solution (the pH was set at 3 by adding acetic acid). After three washing cycles of the colored cells with water, the plates were dried at room temperature. The dye was dissolved by adding 100 μl/measuring point of a 10% acetic acid solution. The extinction was determined by photometry at a wavelength of 595 nm. The change of cell growth, in percent, was calculated by normalization of the measured values to the extinction values of the zero-point plate (=0%) and the extinction of the untreated (0 μm) cells (=100%).

In data set [2] the test system is MCF7, hormone-independent human breast cancer cells. In words: Proliferation assay, MCF7. The format is cell-based. As to conditions: MCF7, 96 h, 4 days incubation, crystal violet. In outline:
(§2)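 Cells seeded ~5000/well, treated after 24 h with 0.01-30 μM compound (0.5% DMSO) for 4 days. Glutaraldehyde-fixed cells stained with crystal violet, absorbance at 595 nm; growth expressed as percent, normalized to zero-point plate (0%) and untreated cells (100%).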

Data set [3] concerns NCI-H460, human non-small-cell lung cancer cells. Description: Proliferation assay, H460. As to conditions: NCI-H460, 96 h, 4 days incubation, crystal violet. The format is cell-based.
Description: as §1

In data set [4] the target is T1, CDK1/CycB (Homo sapiens, UniProt P06493).
T1 construct: GST; purchased ProQinase GmbH, Freiburg; host or cells: baculovirus-infected insect cells (Sf9)
Description: CDK1/CycB Kinase Assay. The format is biochemical. As to conditions: histone IIIS substrate, 33P-ATP, 15 minutes at 22° C.

For data set [5], the system named is DU 145, hormone-independent human prostate cancer cells. In words: Proliferation assay, DU145. The format is cell-based. As to conditions: DU-145, 96 h, 4 days incubation, crystal violet. The essentials:
as §2

In data set [6] the target is T2, VEGF receptor tyrosine kinase-2 (Homo sapiens, UniProt P35968).
T2 construct: GST; made in house; host or cells: baculovirus-infected insect cells (Sf9)
Description: VEGF Receptor-2 Kinase Assay. The note with it: poly-(Glu4Tyr) substrate, 33P-ATP, 10 minutes at 22° C.; read-out: VEGF-R2 IC50. The format is biochemical.

In data set [7] the target is T3, CDK2/CycE (Homo sapiens, UniProt P24941).
T3 construct: GST; purchased ProQinase GmbH, Freiburg; host or cells: baculovirus-infected insect cells (Sf9)
Description: CDK2/CycE Kinase Assay. The note with it: histone IIIS substrate, 33P-ATP, 15 minutes at 22° C. The format is biochemical. In outline:
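Recombinant GST-tagged CDK2/CycE from Sf9 cells (50 ng/point) was incubated with compound (0.01-100 μM) for 15 min at 22° C, pH 8.0, with 0.5 μM ATP plus ^33P-γ-ATP and histone IIIS as substrate, in 12.5% DMSO. Incorporated ^33P was counted after filter binding and washing.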

Where a name gives a salt, the structure may show the parent alone.

T1 sequence (P06493 whole entry): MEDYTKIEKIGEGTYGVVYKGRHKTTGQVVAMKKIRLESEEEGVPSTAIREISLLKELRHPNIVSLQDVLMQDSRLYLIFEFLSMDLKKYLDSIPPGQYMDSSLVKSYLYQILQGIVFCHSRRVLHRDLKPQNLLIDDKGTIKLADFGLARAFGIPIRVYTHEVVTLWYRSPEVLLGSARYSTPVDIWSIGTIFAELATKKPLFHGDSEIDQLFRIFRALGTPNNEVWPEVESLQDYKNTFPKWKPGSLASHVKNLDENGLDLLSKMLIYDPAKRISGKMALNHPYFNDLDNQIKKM
T1 sequence (P14635 whole entry partner): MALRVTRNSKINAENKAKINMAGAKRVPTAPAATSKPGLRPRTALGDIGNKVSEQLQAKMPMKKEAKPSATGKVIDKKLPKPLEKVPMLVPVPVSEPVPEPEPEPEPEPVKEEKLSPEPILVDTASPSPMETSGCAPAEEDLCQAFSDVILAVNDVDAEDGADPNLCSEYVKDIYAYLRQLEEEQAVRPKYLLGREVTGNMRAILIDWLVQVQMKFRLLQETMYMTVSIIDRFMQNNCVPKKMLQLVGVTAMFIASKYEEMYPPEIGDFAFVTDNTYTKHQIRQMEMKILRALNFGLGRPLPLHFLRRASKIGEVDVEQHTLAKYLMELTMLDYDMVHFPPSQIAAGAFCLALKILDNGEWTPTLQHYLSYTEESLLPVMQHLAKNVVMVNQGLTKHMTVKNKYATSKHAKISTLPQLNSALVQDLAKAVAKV
T2 sequence (P35968 20-1356): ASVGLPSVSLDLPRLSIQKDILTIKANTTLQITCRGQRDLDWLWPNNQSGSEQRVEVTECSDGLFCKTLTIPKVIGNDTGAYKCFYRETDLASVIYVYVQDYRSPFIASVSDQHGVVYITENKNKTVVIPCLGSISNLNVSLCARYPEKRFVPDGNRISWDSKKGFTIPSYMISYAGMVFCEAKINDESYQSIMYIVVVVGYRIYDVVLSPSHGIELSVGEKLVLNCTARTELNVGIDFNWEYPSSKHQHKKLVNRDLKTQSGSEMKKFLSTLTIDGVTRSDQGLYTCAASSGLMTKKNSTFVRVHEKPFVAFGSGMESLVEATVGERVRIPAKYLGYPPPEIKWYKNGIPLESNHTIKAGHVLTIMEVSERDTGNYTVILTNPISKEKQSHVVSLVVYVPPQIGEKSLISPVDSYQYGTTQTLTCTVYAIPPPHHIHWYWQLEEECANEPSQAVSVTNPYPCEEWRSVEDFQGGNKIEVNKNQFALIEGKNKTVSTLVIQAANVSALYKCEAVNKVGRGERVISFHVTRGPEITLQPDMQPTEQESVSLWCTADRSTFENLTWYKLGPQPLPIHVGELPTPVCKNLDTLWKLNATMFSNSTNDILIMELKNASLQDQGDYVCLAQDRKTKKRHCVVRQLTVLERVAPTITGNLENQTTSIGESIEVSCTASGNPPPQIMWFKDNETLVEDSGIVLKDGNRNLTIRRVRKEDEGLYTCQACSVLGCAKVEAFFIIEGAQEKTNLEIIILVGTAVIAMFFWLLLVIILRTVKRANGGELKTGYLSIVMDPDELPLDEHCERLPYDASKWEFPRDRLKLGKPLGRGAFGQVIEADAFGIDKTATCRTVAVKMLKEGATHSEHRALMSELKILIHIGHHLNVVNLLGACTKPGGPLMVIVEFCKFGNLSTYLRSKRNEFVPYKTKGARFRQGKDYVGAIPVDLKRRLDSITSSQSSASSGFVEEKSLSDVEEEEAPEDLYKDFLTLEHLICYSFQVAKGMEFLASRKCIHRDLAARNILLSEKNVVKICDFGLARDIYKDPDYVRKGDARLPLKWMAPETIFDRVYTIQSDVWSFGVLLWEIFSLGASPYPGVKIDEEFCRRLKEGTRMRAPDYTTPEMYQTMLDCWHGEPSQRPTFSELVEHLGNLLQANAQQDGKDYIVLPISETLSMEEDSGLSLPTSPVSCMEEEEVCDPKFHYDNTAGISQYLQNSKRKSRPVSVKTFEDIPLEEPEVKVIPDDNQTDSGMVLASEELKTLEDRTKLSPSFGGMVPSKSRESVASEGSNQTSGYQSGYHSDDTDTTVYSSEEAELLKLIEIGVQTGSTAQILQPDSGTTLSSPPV

One may read the IC50 as the concentration that inhibits the measured activity by half. Consider `C[C@@H](O)[C@@H](C)Nc1nc(Nc2ccc(S(=O)(CCO)=NS(=O)(=O)CC[Si](C)(C)C)cc2)ncc1Br` (mixture of isomers) [Example 1.16, (RS)-S-[4-({5-Bromo-4-[(1R,2R)-(2-hydroxy-1-methyl-propyl)amino]pyrimidin-2-yl}amino)phenyl]-S-(2-hydroxyethyl)-N-[2-(trimethylsilyl)ethylsulfonyl]sulfoximide], for which the IC50 came to 4 µM in data set [1]; 0.18 µM in data set [2]; 0.2 µM in data set [3]; 0.17 µM in data set [4]; 0.19 µM in data set [5]; 0.13 µM in data set [6]. The same compound came in with an IC50 in data set [7] of 0.13 µM.

In the case of `C[C@@H](O)[C@@H](C)Oc1nc(Nc2ccc(S(=O)(CCO)=NS(=O)(=O)CC[Si](C)(C)C)cc2)ncc1Br` (mixture of isomers) [Example 1.20, (RS)-S-[4-({5-bromo-4-[(1R,2R)-2-hydroxy-1-methyl-propoxy]pyrimidin-2-yl}amino)phenyl]-S-(2-hydroxyethyl)-N-[2-(trimethylsilyl)ethylsulfonyl]sulfoximide], the IC50 in data set [1] was determined as 2.1 µM; in data set [2], 0.2 µM; in data set [3], 0.4 µM; in data set [4], 0.16 µM; in data set [5], 0.4 µM; in data set [6] it was 0.82 µM. The compound also registered an IC50 in data set [7] of 0.054 µM.

Consider `CCOC(=O)N=S(C)(=O)c1ccc(Nc2ncc(Br)c(N[C@H](C)C(C)(C)O)n2)cc1` (mixture of isomers) [Example 1.31, (RS)-S-[4-({5-bromo-4-[(R)-(2-hydroxy-1,2-dimethylpropyl)amino]pyrimidin-2-yl}amino)phenyl]-N-(ethoxycarbonyl)-S-methyl sulfoximide], for which the IC50 in data set [1] is 0.7 µM; in data set [2], 0.2 µM; in data set [3] it was 0.18 µM; in data set [4] it was 0.027 µM; in data set [5] it was 0.3 µM; in data set [6], 0.14 µM. The compound further had an IC50 in data set [7] of 0.009 µM.

`CCOC(=O)N=S(C)(=O)c1ccc(Nc2ncc(Br)c(N[C@H](C)[C@@H](C)O)n2)cc1` (mixture of isomers) [Example 1.32, (RS)-S-[4-({5-bromo-4-[(1R,2R)-(2-hydroxy-1-methylpropyl)amino]pyrimidin-2-yl}amino)phenyl]-N-(ethoxycarbonyl)-S-methyl sulfoximide]: the concentration for half-maximal inhibition (IC50) in data set [1] is 0.6 µM; in data set [2], 0.19 µM; in data set [3], 0.18 µM; in data set [4] it was 0.016 µM; in data set [5] it was 0.3 µM; in data set [6] it was 0.056 µM. In addition, the IC50 in data set [7] amounted to 0.012 µM.

With `CCOC(=O)N=S(=O)(CC)c1ccc(Nc2ncc(Br)c(N[C@H](C)C(C)(C)O)n2)cc1` (mixture of isomers) [Example 1.35, (RS)-S-[4-({5-bromo-4-[(R)-(2-hydroxy-1,2-dimethylpropyl)amino]pyrimidin-2-yl}amino)phenyl]-N-(ethoxycarbonyl)-S-ethyl sulfoximide], the IC50 in data set [1] amounted to 0.3 µM; in data set [2] it was 0.11 µM; in data set [3], 0.12 µM; in data set [4], 0.096 µM; in data set [5] it was 0.12 µM; in data set [6] it was 0.094 µM. For the same compound, in data set [7], the IC50 is 0.042 µM.

Consider `CCOC(=O)N=S(=O)(CC)c1ccc(Nc2ncc(Br)c(N[C@H](C)[C@@H](C)O)n2)cc1` (mixture of isomers) [Example 1.36, (RS)-S-[4-({5-bromo-4-[(1R,2R)-(2-hydroxy-1-methylpropyl)amino]pyrimidin-2-yl}amino)phenyl]-N-(ethoxycarbonyl)-S-ethyl sulfoximide], for which the IC50 in data set [1] was 1.2 µM; in data set [2], 0.14 µM; in data set [3], 0.12 µM; in data set [4], 0.043 µM; in data set [5], 0.17 µM; in data set [6] it was 0.092 µM. Further, the IC50 in data set [7] is 0.011 µM.

With `CCOC(=O)N=S(C)(=O)c1ccc(Nc2ncc(Br)c(N[C@H](C)C(C)(C)O)n2)cc1C` (mixture of isomers) [Example 1.37, (RS)-S-[4-({5-bromo-4-[(R)-(2-hydroxy-1,2-dimethylpropyl)amino]pyrimidin-2-yl}amino)-2-methylphenyl]-N-(ethoxycarbonyl)-S-methyl sulfoximide], the IC50 in data set [1] was 0.3 µM; in data set [2], 0.17 µM; in data set [3], less than 0.1 µM; in data set [4], 0.063 µM; in data set [5], 0.16 µM; in data set [6], 0.057 µM. In addition, in data set [7], half-maximal inhibition (IC50) required 0.048 µM.

Regarding `CCOC(=O)N=S(C)(=O)c1ccc(Nc2ncc(Br)c(N[C@H](C)[C@@H](C)O)n2)cc1C` (mixture of isomers) [Example 1.38, (RS)-S-[4-({5-bromo-4-[(1R,2R)-(2-hydroxy-1-methylpropyl)amino]pyrimidin-2-yl}amino)-2-methylphenyl]-N-(ethoxycarbonyl)-S-methyl sulfoximide], the IC50 in data set [1] is 0.4 µM; in data set [2] it was 0.12 µM; in data set [3] it was 0.06 µM; in data set [4], 0.075 µM; in data set [5] it was 0.13 µM; in data set [6] it was 0.059 µM. Besides, half-maximal inhibition in data set [7] (IC50) required 0.078 µM.

On to `CCOC(=O)N=S(C)(=O)c1ccc(Nc2ncc(Br)c(O[C@H](C)[C@@H](C)O)n2)cc1` (mixture of isomers) [Example 1.40, (RS)-S-[4-({5-bromo-4-[(1R,2R)-2-hydroxy-1-methylpropoxy]pyrimidin-2-yl}amino)phenyl]-N-(ethoxycarbonyl)-S-methyl sulfoximide], for which the IC50 in data set [1] is 0.3 µM; in data set [2], 0.11 µM; in data set [3] it was 0.17 µM; in data set [4], 0.021 µM; in data set [5] it was 0.18 µM; in data set [6], 0.11 µM. This compound also displayed an IC50 in data set [7] of 0.014 µM.

With `Cc1cc(Nc2ncc(Br)c(N[C@H](C)[C@@H](C)O)n2)ccc1S(C)(=N)=O` (mixture of isomers) [Example 1.60, (RS)-S-[4-({5-bromo-4-[(1R,2R)-(2-hydroxy-1-methylpropyl)amino]pyrimidin-2-yl}amino)-2-methylphenyl]-S-methyl sulfoximide], the IC50 stood at 0.04 µM in data set [1]; 0.06 µM in data set [2]; 0.04 µM in data set [3]; 0.004 µM in data set [4]; 0.04 µM in data set [5]; 0.039 µM in data set [6]. In addition, the IC50 in data set [7] was 0.004 µM.

By melting point is commonly meant the temperature of the solid-liquid transition. The compound `CCC(Sc1nc(Nc2ccc(S(C)(=N)=O)cc2)ncc1Br)C(C)=O` (racemic) (as salt: sodium) [Example 3.3, (RS)-S-[4-({4-[(RS)-(1-acetylpropyl)sulfanyl]-5-bromopyrimidin-2-yl}amino)phenyl]-S-methyl sulfoximide] had a melting point of 192 to 194 °C.

Consider `C[C@H](CO)Nc1nc(Nc2ccc(S(=O)(CC3CC3)=NS(=O)(=O)CC[Si](C)(C)C)cc2)ncc1Br` (mixture of isomers) [Example 1.7, (RS)-S-[4-({5-bromo-4-[(R)-(2-hydroxy-1-methylethyl)amino]pyrimidin-2-yl}amino)phenyl]-S-(cyclopropylmethyl)-N-[2-(trimethylsilyl)ethylsulfonyl]sulfoximide], for which the melting point was 195 °C (dec.).

`CC(O)C(C)Sc1nc(Nc2ccc(S(C)(=N)=O)cc2)ncc1Br` (racemic) [Example 3.5, (RS)-S-[4-({5-bromo-4-[(RS,RS)-(2-hydroxy-1-methylpropyl)sulfanyl]pyrimidin-2-yl}amino)phenyl]-S-methyl sulfoximide]: the IC50 was 0.03 µM in data set [1]; 0.12 µM in data set [2]; 0.05 µM in data set [3]; 0.017 µM in data set [4]; 0.06 µM in data set [5]; 0.15 µM in data set [6]. In data set [7], this compound registered an IC50 of 0.008 µM.
